# According to PubChem BioAssay AID367 (MTDP, 2006):
# Active and inactive are the calls of the source. No rule for the calls is given here.
# Target: Gag-Pol polyprotein (Human immunodeficiency virus type 2 subtype A (isolate ROD)) (UniProt P04584)
# Assay: Reverse transcriptase ribonuclease H inhibitors, biochemical concentration-response (AID 367)
# Details: HIV-2 RNase H, FRET RNA/DNA substrate cleavage
# Gag-Pol polyprotein (Human immunodeficiency virus type 2 subtype A (isolate ROD)), sequence (P04584 whole entry, looked up): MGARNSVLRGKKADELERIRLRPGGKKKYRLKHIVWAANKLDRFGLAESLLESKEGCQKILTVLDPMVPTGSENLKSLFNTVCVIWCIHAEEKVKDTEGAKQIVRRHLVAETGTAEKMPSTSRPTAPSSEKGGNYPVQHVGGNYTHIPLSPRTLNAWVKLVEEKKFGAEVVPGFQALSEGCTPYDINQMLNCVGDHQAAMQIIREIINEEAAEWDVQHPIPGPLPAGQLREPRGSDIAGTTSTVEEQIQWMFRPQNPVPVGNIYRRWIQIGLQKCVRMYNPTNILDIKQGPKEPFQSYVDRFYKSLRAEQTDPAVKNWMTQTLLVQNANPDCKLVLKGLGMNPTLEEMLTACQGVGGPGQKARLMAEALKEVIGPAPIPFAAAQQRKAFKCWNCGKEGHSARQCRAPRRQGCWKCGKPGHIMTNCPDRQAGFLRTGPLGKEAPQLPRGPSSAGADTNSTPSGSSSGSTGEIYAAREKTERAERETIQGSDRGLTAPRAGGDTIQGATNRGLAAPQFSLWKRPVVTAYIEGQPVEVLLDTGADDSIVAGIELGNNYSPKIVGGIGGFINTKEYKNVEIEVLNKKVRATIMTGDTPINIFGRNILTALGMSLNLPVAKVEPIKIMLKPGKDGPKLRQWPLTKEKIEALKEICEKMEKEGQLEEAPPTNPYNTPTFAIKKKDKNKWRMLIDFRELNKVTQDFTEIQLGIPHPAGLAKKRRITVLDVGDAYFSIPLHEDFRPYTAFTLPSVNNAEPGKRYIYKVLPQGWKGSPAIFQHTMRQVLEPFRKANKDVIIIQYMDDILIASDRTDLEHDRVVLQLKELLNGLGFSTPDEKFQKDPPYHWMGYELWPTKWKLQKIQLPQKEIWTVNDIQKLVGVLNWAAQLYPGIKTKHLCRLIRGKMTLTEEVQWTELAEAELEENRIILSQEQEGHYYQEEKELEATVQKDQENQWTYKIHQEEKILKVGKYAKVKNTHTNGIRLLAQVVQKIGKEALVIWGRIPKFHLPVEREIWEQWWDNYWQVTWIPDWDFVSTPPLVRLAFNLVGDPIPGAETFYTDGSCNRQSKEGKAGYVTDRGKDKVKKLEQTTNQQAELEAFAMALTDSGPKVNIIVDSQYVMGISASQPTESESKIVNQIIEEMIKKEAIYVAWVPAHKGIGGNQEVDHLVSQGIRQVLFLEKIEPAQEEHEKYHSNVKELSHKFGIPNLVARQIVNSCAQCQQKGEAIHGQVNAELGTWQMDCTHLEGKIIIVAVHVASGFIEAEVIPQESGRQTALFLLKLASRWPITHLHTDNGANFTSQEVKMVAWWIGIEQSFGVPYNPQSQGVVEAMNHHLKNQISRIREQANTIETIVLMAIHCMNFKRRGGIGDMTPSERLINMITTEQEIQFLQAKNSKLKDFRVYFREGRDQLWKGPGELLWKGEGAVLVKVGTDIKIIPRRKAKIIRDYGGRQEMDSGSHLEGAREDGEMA
row,Compound,IC50
1,O=C(CSc1nc2ccccc2s1)c1sc2sc3ccccc3[n+]2c1[O-],1.9 µM
2,Cc1cc(=O)c2c(O)c3c(O)cc(O)c4c5c(O)cc(O)c6c(O)c7c(=O)cc(C)c8c1c2c(c34)c(c65)c78,inactive
3,CCOc1ccc(N2C(=O)/C(=C/c3ccc(Br)o3)C(=O)NC2=S)cc1,0.9 µM
4,FC(F)(F)c1nc2ccc(SSc3ccc4nc(C(F)(F)F)[nH]c4c3)cc2[nH]1,0.6 µM
5,CC(C)=CCC(O)C1=CC(=O)c2c(O)ccc(O)c2C1=O (stereo not drawn),inactive
6,O=C(Cc1ccccc1Cl)c1ccc(O)c(O)c1O,2 µM
7,Cc1sc2nc(-c3ccc([N+](=O)[O-])cc3)[nH]c(=O)c2c1C,0.64 µM
8,CCOc1ccc(NC(=O)c2c(NC(=O)c3ccco3)sc3c2CCCCC3)cc1,6 µM
9,Oc1c(Br)cc(/C=N/Nc2nnc3c(n2)[nH]c2ccccc23)c(Br)c1O,2.3 µM
10,COc1cc(C)cc2c(-c3c(O)cc(O)c4c3C[C@@H](C)N[C@@H]4C)cc(-c3cc(-c4c(O)cc(O)c5c4C[C@@H](C)N[C@@H]5C)c4cc(C)cc(OC)c4c3O)c(O)c12,2.1 µM
11,O=[N+]([O-])c1ccc(S(=O)(=O)Cc2ccccc2)c2nonc12,5 µM
12,O=C(O)CCc1c2ccc(=O)c(O)c-2oc2c(O)c(O)ccc12,0.6 µM
13,CCCCCCCCCCCCCCCC(=O)OCC1OC(n2ccc(N)nc2=O)C(O)C1O (stereo not drawn),inactive
14,Oc1cc(CN2COc3ccccc32)c(O)cc1CNC1CCCCC1,2.9 µM
15,O=C1CC(=O)c2ccc3c4c(ccc1c24)C(=O)CC3=O,3.8 µM
16,O=C1C=CC(=O)c2c(O)cccc21,3.1 µM
17,N#C/C(=C\Nc1ccc(S(=O)(=O)Nc2nccs2)cc1)c1nc(-c2ccc(Cl)cc2)cs1,4.1 µM
18,O=[N+]([O-])c1cc(Cc2cc([N+](=O)[O-])c3cccnc3c2O)c(O)c2ncccc12,2.8 µM
19,COc1cc(/C=N\c2sc3c(c2C(=O)NCc2ccccc2)CCCC3)cc(Cl)c1O,2.8 µM
20,O=C(Oc1ccccc1)Oc1c(Cl)cc2oc(=O)sc2c1Cl,6.3 µM
21,O=c1oc2ccccc2c(O)c1/C=C1\C=Nc2ccccc21,5 µM
22,COc1cc([C@@H]2c3cc4c(cc3C[C@H]3COC(=O)[C@@H]32)OCO4)cc(OC)c1O,inactive
23,C=CC(C)(C)C12CC3C(=O)N/C(=C\c4cnc[nH]4)C(=O)N3C1Nc1ccccc12 (stereo not drawn),> 100 µM (inactive)
24,Cc1ccccc1-n1c(O)c(C=C2C=CC=N2)c(=O)[nH]c1=S,inactive
25,CCOc1ccc(NC(=O)c2c(NC(=O)c3ccccc3)sc3c2CCCCC3)cc1,inactive

row,Compound,IC50
1,Cc1ccc(S(=O)(=O)N=C2C=CC(=O)C=C2)c(C)c1,4.3 µM
2,O=C1C=CC(=NS(=O)(=O)c2ccc(Cl)c([N+](=O)[O-])c2)C=C1,4.1 µM
3,O=C(O)c1cc(-c2ccc(/C=C3/Sc4ccccc4C3=O)o2)ccc1O,3.3 µM
4,C=CCN1C(=O)/C(=C\c2ccc([N+](=O)[O-])o2)C(=O)NC1=S,inactive
5,CCC(=O)Nc1sc2c(c1C(=O)Nc1ccc(OC)cc1)CCCCC2,inactive
6,O=C1NC(=S)N(c2ccccc2F)C(=O)C1=Cc1ccco1,2.6 µM
7,COc1ccc(/C=C\C(=O)c2c(-c3ccccc3)c3cc(C)ccc3[nH]c2=O)c(OC)c1,inactive
8,Cc1cc(-c2ccco2)c(C#N)c(SCC(=O)c2ccc(O)c(O)c2)n1,0.8 µM
9,COC(=O)c1cc2cc3cc4cc(CC(=O)O)c(C(=O)/C=C(\O)c5ccccc5O)c(OC)c4c(OC)c3c(O)c2c(=O)o1,8.6 µM
10,Cc1ccc(NC(=O)c2c(NC(=O)c3ccccc3F)sc3c2CCCCC3)cc1,5 µM
11,Cc1nn(CC(=O)Nc2sc(C)c(C)c2C(N)=O)c(C)c1[N+](=O)[O-],4.3 µM
12,O=C1/C(=C/c2ccc(O)c(O)c2)SC(=S)N1c1ccc(O)cc1,2.6 µM
13,O=C1NC(=S)N(c2ccccc2F)C(=O)/C1=C/c1ccc(OCc2cccc(C(=O)O)c2)cc1,9 µM
14,O=C1C(Cl)=C(Nc2ccc(S(=O)(=O)Nc3ccccn3)cc2)C(=O)c2ccccc21,3.4 µM
15,CCCCCCCCCCCCCCCCCCOCC(O)CO (stereo not drawn),> 100 µM (inactive)
16,Cc1sc(NC(=O)C2CCCO2)c(C(N)=O)c1C (stereo not drawn),4.3 µM
17,C[C@]12CC[C@H]3[C@@H](CCC4=CC(=O)CC[C@@]43C)[C@@H]1CC[C@@H]2C(=O)COS(=O)(=O)c1ccc(Br)cc1,7.1 µM
18,Cc1ccc(S(=O)(=O)/N=C2\C=C(Sc3ncn[nH]3)C(=O)c3ccccc32)cc1,2 µM
19,O=C1c2ccccc2C(=O)N1c1ccc(-c2nc3ccc(N4C(=O)c5ccccc5C4=O)cc3[nH]2)cc1,1.7 µM
20,Cc1sc(NC(=O)c2ccc(Br)o2)c(C(N)=O)c1C,7 µM
21,O=C1NN(c2ccc(I)cc2)C(=O)/C1=C\c1ccc(O)c(O)c1,4.1 µM
22,Cc1ccc(C)n1-c1ccc(O)c(C(=O)O)c1,1.6 µM
23,CC(C)c1ccc(O)c(O)c(=O)c1 (tested in a mixture with another compound),0.8 µM
24,CCCc1cc(=O)oc2c3c(c4c(c12)OC(C)(C)C=C4)O[C@H](C)[C@@H](C)[C@H]3OC,inactive
25,CCOc1ccc(C2=CC(=O)C=CC2=O)cc1,0.7 µM

row,Compound,IC50
1,Oc1cc(O)c2cc(O)c(-c3ccc(O)c(O)c3)[o+]c2c1,0.8 µM
2,O=C1NC(=S)N(c2ccc(Cl)cc2)C(=O)/C1=C/c1ccc(Br)o1,1.7 µM
3,Oc1cc(O)c2c(c1)OC(c1ccc(O)c(O)c1)C(OC1(c3cc(O)c(O)c(O)c3)Oc3cc(O)cc(O)c3C(O)C1O)C2 (stereo not drawn),1.6 µM
4,O=C(N/N=C/c1ccccc1Cl)c1cc(O)c(O)c(O)c1,0.8 µM
5,O=C1C=C/C(=N\S(=O)(=O)c2cc(Cl)ccc2Cl)C=C1Cl,2 µM
6,COc1cccc2cc(C(N)=O)c(=O)oc12,4.6 µM
7,COc1ccc(N2C(=O)/C(=C\c3cn(CC(=O)Nc4ccccc4)c4ccccc34)C(=O)NC2=S)cc1,2.8 µM
8,COc1ccccc1N=C(NOCc1ccc(Cl)cc1Cl)c1nonc1N,inactive
9,O=C1O/C(=C(/C(=O)O)c2ccc(O)cc2)C(O)=C1c1cc2c3c(c(O)cc(C4=C(O)/C(=C(\C(=O)O)c5ccc(O)cc5)OC4=O)c3c1)OC2=O,1.4 µM
10,C[C@@H]1Oc2c3c(c4c(-c5ccccc5)cc(=O)oc4c2C(=O)[C@H]1C)OC(C)(C)C=C3,9.8 µM
11,Cc1ccc(S(=O)(=O)/N=C2\C=CC(=O)C=C2Cl)cc1,2.1 µM
12,O=C1C(Cl)=CC(=NS(=O)(=O)c2ccccc2)C=C1Cl,1 µM
13,Cc1c(O)c(Br)c(C)c(O)c1Br (tested in a mixture with another compound),0.7 µM
14,Cc1ccc(C)n1-c1ccc(Br)cc1C(=O)O,inactive
15,C=C(C)[C@@H]1CCc2c(O)c(O)c(=O)cc(C)c2C1,1.7 µM
16,O=C1/C(=C/c2ccco2)C(=O)N(c2ccc(Br)cc2)C(=S)N1c1ccccc1,inactive
17,O=C(O)C1Nc2c(Cl)cc(Cl)cc2C2C=CCC12 (stereo not drawn),inactive
18,C=C(CCC(C(=O)O)C1CCC2(C)C3=C(CCC12C)C1(C)CCC(O)C(C)(C)C1CC3)C(C)C (stereo not drawn),inactive
19,COc1ccc2oc(=O)c(-c3csc(Nc4ccc(Br)cc4)n3)cc2c1,9.8 µM
20,O=c1c(O)c(-c2ccc(O)c(O)c2)oc2cc(O)cc(O)c12,9 µM
21,Cc1sc(NC(=O)c2ccc3c(c2)OCO3)c(C(N)=O)c1C,10 µM
22,O=C1c2ccccc2C(=O)c2c1cc(O)c(O)c2O,0.4 µM
23,NCC[Se][Se]CCN,2 µM
24,COC(=O)c1cc2c3c(ccc2[nH]1)N(C(=O)c1cc2c4c(ccc2[nH]1)N(C(=O)c1cc2c5c(ccc2[nH]1)N(C(N)=O)CC5)CC4)CC3,8.1 µM
25,CC(C)=CCC[C@]1(C)[C@@H](CC=C(C)C)C[C@@]2(CC=C(C)C)C(=O)/C(=C(\O)c3ccc(O)c(O)c3)C(=O)[C@]1(CC=C(C)C)C2=O,4.8 µM

row,Compound,IC50
1,Nc1ccc(S(=O)(=O)O)c2cccc(O)c12,inactive
2,O=[N+]([O-])c1ccc2c(N=Nc3ccc4ccccc4c3O)c(O)cc(S(=O)(=O)O)c2c1,2.2 µM
3,O=C1C=CC(=O)C(c2cccc(Cl)c2)=C1,1.1 µM
4,COc1ccc2c(c1)N(C(=O)CN1C(=O)c3ccccc3C1=O)C(C)(C)c1ssc(=S)c1-2,3.7 µM
5,N#Cc1c(NC(=O)C(F)(F)F)sc2c3c(=O)c4ccccc4c(=O)c=3oc3ccccc3c12,inactive
6,Cc1ccc(C=C2C(=O)NC(=S)N(c3ccccc3Cl)C2=O)o1,inactive
7,C=C/C(C)=C/C[C@]1(C)[C@H](C)CC[C@@]23C(=C[C@H](OC(=O)c4ccc(O)c(OC)c4)C[C@@H]12)[C@@H](OC(C)=O)O[C@H]3OC(C)=O,inactive
8,CC1Oc2cc3c(-c4c(O)cc(O)c5c(O)c6c(cc45)OC(C)C(C)C6=O)c(O)cc(O)c3c(O)c2C(=O)C1C (stereo not drawn),8.2 µM
9,O=c1c(O)c(-c2cc(O)c(O)c(O)c2)oc2cc(O)cc(O)c12,3 µM
10,Cc1c(Cl)ccc2c1NC(C(=O)O)C1CC=CC21 (stereo not drawn),inactive
11,CC(=O)/C=C/C=C/c1ccc2c(c1)OC(CO)C(c1ccc(O)c(O)c1)O2 (stereo not drawn),inactive
12,O=C1c2ccccc2C(=O)c2c(NC3CCCCC3)ccc(Nc3ccc(S(=O)(=O)O)cc3)c21,4.8 µM
13,O=C1NC(=S)N(c2cccc(Cl)c2)C(=O)/C1=C\C=C\c1ccco1,7 µM
14,CC(=O)C1=C(O)[C@@]2(O)C(=O)c3c(c(C)c4ccc(C)c(O)c4c3O)C[C@H]2[C@@H](N)C1=O,4.4 µM
15,Cc1ccc(S(=O)(=O)N=C2C=C(Cl)C(=O)C(Br)=C2)cc1,1.8 µM
16,CN(C)CS/C(N)=N/C(O)C(Cl)(Cl)Cl (stereo not drawn),6 µM
17,CCOc1ccc(C(=O)Nc2ccc3c(c2)C(=O)c2ccccc2C3=O)cc1,4.3 µM
18,COc1cc(C=O)ccc1OCCCOc1cccc(Oc2ccccc2)c1,> 100 µM (inactive)
19,O=C(O)c1c(Br)c(Br)c(Br)c(Br)c1C1c2ccc(O)cc2Oc2cc(O)ccc21,8 µM
20,COc1ccccc1NC(=O)c1c(NC(=O)Cc2ccccc2)sc2c1CCCCC2,8.5 µM
21,CCN1C(=O)/C(=C/c2ccoc2)C(=O)NC1=S,inactive
22,Cc1cccc(NC(=O)c2c(NC(=O)c3ccc([N+](=O)[O-])cc3)sc3c2CCCC3)c1,2.7 µM
23,O=C1c2cc([N+](=O)[O-])ccc2-c2ccc3c4ccc5c6c(ccc(c7ccc1c2c73)c64)C(=O)c1cc([N+](=O)[O-])ccc1-5,4 µM
